PubChem BioAssay (NCI)
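Results reflect a 48-hour exposure of cells in 96-well plates to compound at five concentrations. GI50 is the concentration that inhibits growth by half. The concentration for full growth arrest is given as TGI.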

What was measured:
Test in all cases: growth of human tumour cells (NCI), 48 h
[1] = system: A549 NSCLC
[2] = system: NCI-H522 lung
[3] = system: KM12 colon
[4] = system: MDA-MB-231 breast
[5] = system: NCI-H23 lung
[6] = system: MCF7 breast
[7] = system: HOP-92 NSCLC
[8] = system: RXF 393 renal
[9] = system: U251 CNS
[10] = system: HCC-2998 colon
[11] = system: A498 renal
[12] = system: HL-60(TB) leukemia
[13] = system: UACC-257 melanoma
[14] = system: OVCAR-5 ovarian
[15] = system: SNB-75 CNS
[16] = system: SNB-19 CNS
[17] = system: SK-MEL-28 melanoma
[18] = system: OVCAR-3 ovarian
[19] = system: SW-620 colon
[20] = system: ACHN renal
[21] = system: UO-31 renal
[22] = system: UACC-62 melanoma
[23] = system: T-47D breast
[24] = system: SF-268 CNS
[25] = system: HOP-62 NSCLC
[26] = system: OVCAR-4 ovarian
[27] = system: SN12C renal
[28] = system: M14 melanoma
[29] = system: COLO 205 colon
[30] = system: SF-539 CNS
[31] = system: CAKI-1 renal
[32] = system: NCI-H226 lung
[33] = system: SK-MEL-5 melanoma
[34] = system: HCT-15 colon
[35] = system: PC-3 prostate
[36] = system: HT29 colon
[37] = system: NCI/ADR-RES ovarian
[38] = system: HCT-116 colon
[39] = system: SK-MEL-2 melanoma
[40] = system: DU-145 prostate
[41] = system: SF-295 CNS
[42] = system: MDA-MB-435
[43] = system: TK-10 renal

Nc1nc(N)c2cc(NCc3ccc(Cl)c(Cl)c3)ccc2n1
GI50 [1]: 528 nM
TGI [1]: 1820 nM
GI50 [2]: 1310 nM
TGI [2]: 2770 nM
GI50 [3]: 1290 nM
TGI [3]: 2590 nM
GI50 [4]: 1300 nM
TGI [4]: 2580 nM
GI50 [5]: 1190 nM
TGI [5]: 2610 nM
GI50 [6]: 1360 nM
TGI [6]: 2750 nM
GI50 [7]: 348 nM
TGI [7]: 1750 nM
GI50 [8]: 1130 nM
TGI [8]: 2340 nM
GI50 [9]: 1120 nM
TGI [9]: 2370 nM
GI50 [10]: 1160 nM
TGI [10]: 2510 nM
GI50 [11]: 1160 nM
TGI [11]: 2410 nM
GI50 [12]: 1350 nM
TGI [12]: 2930 nM
GI50 [13]: 1710 nM
TGI [13]: 3220 nM
GI50 [14]: 1020 nM
TGI [14]: 2190 nM
GI50 [15]: 1230 nM
TGI [15]: 2480 nM
GI50 [16]: 1460 nM
TGI [16]: 2780 nM
GI50 [17]: 1770 nM
TGI [17]: 3150 nM
GI50 [18]: 1030 nM
TGI [18]: 2240 nM
GI50 [19]: 431 nM
TGI [19]: 1590 nM
GI50 [20]: 1310 nM
TGI [20]: 2580 nM
GI50 [21]: 1350 nM
TGI [21]: 2890 nM
GI50 [22]: 1390 nM
TGI [22]: 2700 nM
GI50 [23]: 1720 nM
TGI [23]: 3280 nM
GI50 [24]: 1580 nM
TGI [24]: 3120 nM
GI50 [25]: 1630 nM
TGI [25]: 3010 nM
GI50 [26]: 1340 nM
TGI [26]: 2610 nM
GI50 [27]: 1500 nM
TGI [27]: 2890 nM
GI50 [28]: 841 nM
TGI [28]: 2160 nM
GI50 [29]: 1320 nM
TGI [29]: 2600 nM
GI50 [30]: 1650 nM
TGI [30]: 3040 nM
GI50 [31]: 1370 nM
TGI [31]: 2710 nM
GI50 [32]: 1530 nM
TGI [32]: 3140 nM
GI50 [33]: 1500 nM
TGI [33]: 2830 nM
GI50 [34]: 765 nM
TGI [34]: 2020 nM
GI50 [35]: 623 nM
TGI [35]: 1960 nM
GI50 [36]: 813 nM
TGI [36]: 2050 nM
GI50 [37]: 2880 nM
TGI [37]: 16600 nM
GI50 [38]: 391 nM
TGI [38]: 1580 nM
GI50 [39]: 1820 nM
TGI [39]: 3370 nM
GI50 [40]: 1650 nM
TGI [40]: 3010 nM
GI50 [41]: 1220 nM
TGI [41]: 2610 nM
GI50 [42]: 1110 nM
TGI [42]: 2400 nM
GI50 [43]: 1590 nM
TGI [43]: 2930 nM
